Laboratory results as given in patent publication US9593149B2, “Amylin and calcitonin receptor agonist” (Novo Nordisk A/S, priority 2014, dated 2017).
Numbered stars: 1 amine (or outer) side, 2 acyl side, 3 side chain; on linkers, the order of the positions; unused ones are H or OH. Side chains are listed from the residue outwards. Peptide text beside a SMILES is read from it. * marks the point of attachment. C20 diacid = O=C(O)CCCCCCCCCCCCCCCCCCC(=O)*; C18 diacid = O=C(O)CCCCCCCCCCCCCCCCC(=O)*; γGlu = O=C(O)[C@H](CCC(=O)[*:2])N[*:1]

Legend:
[1] = target: T1, human amylin receptor (Amylin 3(a)/CRE-luc cell membranes) (Homo sapiens, UniProt O60896+P30988); experiment: Assay (V) binding to the human amylin receptor (membrane, SPA); details: 125I-rat amylin, read-out: hAmylin-R binding IC50
T1 construct: host or cells: BHK570
T1 sequence (P30988 25-474): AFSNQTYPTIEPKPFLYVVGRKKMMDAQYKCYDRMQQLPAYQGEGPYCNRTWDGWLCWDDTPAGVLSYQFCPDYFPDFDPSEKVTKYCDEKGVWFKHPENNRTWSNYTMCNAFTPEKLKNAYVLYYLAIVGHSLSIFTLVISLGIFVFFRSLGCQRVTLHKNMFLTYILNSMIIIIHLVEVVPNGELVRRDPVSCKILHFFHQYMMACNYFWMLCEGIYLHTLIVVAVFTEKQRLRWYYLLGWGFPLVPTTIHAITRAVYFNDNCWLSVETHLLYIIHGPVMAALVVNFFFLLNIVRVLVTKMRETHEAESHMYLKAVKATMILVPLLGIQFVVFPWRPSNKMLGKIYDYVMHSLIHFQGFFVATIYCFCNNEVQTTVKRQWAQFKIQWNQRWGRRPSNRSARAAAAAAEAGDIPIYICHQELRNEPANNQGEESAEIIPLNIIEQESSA
T1 sequence (O60896 24-148 partner): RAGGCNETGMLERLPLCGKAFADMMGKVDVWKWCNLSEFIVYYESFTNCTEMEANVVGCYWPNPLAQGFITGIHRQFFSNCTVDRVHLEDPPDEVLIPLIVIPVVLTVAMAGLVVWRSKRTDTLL
Protocol: The binding assay was performed using scintillation proximity assay (SPA) beads (RPNQ0001) from PerkinElmer and cell membranes from the Amylin 3(a)/CRE-luc cells (as described in Assay (II)) were used. Membranes were prepared in the following way; the cells were rinsed with PBS and incubated with Versene for approximately 5 min before harvesting. The cells were flushed with PBS and the cell-suspension was centrifuged for 5 min at 1000 rpm. Cells were homogenized (ultrathurrax) in a buffer containing 20 mM Na-HEPES and 10 mM EDTA (pH 7.4) and centrifuged at 20.000 rpm for 15 min. The resulting pellet was resuspended, homogenized and centrifuged (20.000 rpm, 15 min) in a buffer containing 20 mM Na-HEPES and 0.1 mM EDTA (pH 7.4, buffer 2). The resulting pellet was resuspended in buffer 2 and protein concentration was tested (BCA protein Assay, Pierce). The homogenate was kept cold during the whole procedure. The membranes were kept at −80° C. until use. The assay was performed in a 384 well Optiplate (PerkinElmer) in a total volume of 40 ul. Membranes were mixed with SPA beads. Final concentration of membranes 35 ng/μL final and SPA beads was 0.05 mg/well. […] Samples were analyzed on TopCounter™ (Packard). The IC50 was calculated using (one site binding competition analysis) GraphPad Prism5 as a measure of receptor affinity.

[2] = Assay (XV) subcutaneous PK in LYD-pigs, co-formulated or co-dosed with liraglutide; type: in vivo; details: for AUC/D / Cmax/D / T½: LYD-pigs s.c.
Protocol: The studies were performed in female LYD pigs of SPF origin delivered from Lars Jonson, Hillerødvej 70, Lynge.
Before the animals arrived, the animal rooms and pens were cleaned and disinfected with Virkon S. During the study, the animal rooms were cleaned and washed regularly.
The pigs were group housed during the acclimatisation period. The pigs were fitted with a central venous catheter while under anaesthesia and after the single housed after catheterization in pens ≧3.1 m^2 with straw as bedding. The temperature in the rooms was set at 20−23° C. and the relative humidity to 30-70%. The rooms were illuminated to give a cycle of 12 hours light and 12 hours darkness. Light was on from 07.00 to 19.00 h.
The formulations was prepared similarly and filled in cartridges in all cases.
The animals were dosed subcutaneously as follows.
The s.c. dosing was performed in 4 mm depth, in a site of injection which was secured on beforehand by ultrasound to avoid muscular tissue or heavy vascularization. Dosing was made using NovoPen®4 and needle Novofine 28 G and a needle stopper to ensure 4 mm depth of injection. The needle was kept in the subcutis for 10 seconds after the injection to secure deposition of compound. […] The co-formulation was administered as one injection. Study was performed as a cross over study with adequate wash out between dosings.
Blood was sampled at predefined time points for up till 15 days post dosing to adequately cover the full plasma concentration-time profile of the mimylin derivative. Blood samples were drawn from a central venous catheter to jugularis made through the catheter which was afterwards flushed with 10 ml 0.9% NaCl.
For each blood sampling time point approximately 0.8 mL of whole blood was collected in a 1.5 mL EDTA coated tube, and the tube was gently turned to allowing mixing of the sample with the anticoagulant. Blood samples (for example 0.8 mL) were collected in EDTA buffer (8 mM) and then centrifuged at 4° C. and 2000 G for 10 minutes. Plasma was pipetted into Micronic tubes on dry ice, and kept at −20° C. until analysis.
Individual plasma concentration-time profiles were analysed by a non-compartmental model in Phoenix WinNonlin version 6.3 (Pharsight Inc., Mountain View, Calif., USA).
The area under the plasma concentration versus time curve (AUC, [time×concentration]) was calculated (by the Pharsight programme) after subcutaneous administration, typically until 240-288 hours post dosing, or until last measured concentration. The AUC was calculated and given as AUCinf-pred and dose normalized.
Results of co-formulation studies in LYD-pigs are summarized below

[3] = Co-formulation liraglutide + Ex #2

`CC(=O)N[C@@H](C)C(=O)N[C@@H](CO)C(=O)N[C@@H](CCCCNC(=O)CC[C@H](NC(=O)CCCCCCCCCCCCCCCCCCC(=O)O)C(=O)O)C(=O)N[C@@H](CC(C)C)C(=O)N[C@@H](CO)C(=O)N[C@H](C(=O)N[C@@H](C)C(=O)N[C@@H](C)C(=O)N[C@@H](CC(C)C)C(=O)NCC(=O)N[C@@H](CCCNC(=N)N)C(=O)N[C@@H](CC(C)C)C(=O)N[C@@H](CO)C(=O)N[C@@H](C)C(=O)N[C@@H](CCC(=O)O)C(=O)N[C@@H](CC(C)C)C(=O)N[C@@H](Cc1c[nH]cn1)C(=O)N[C@@H](CCC(=O)O)C(=O)N[C@@H](CC(C)C)C(=O)N[C@@H](C)C(=O)N[C@H](C(=O)N[C@@H](CC(C)C)C(=O)N1CCC[C@H]1C(=O)N[C@@H](CCCNC(=N)N)C(=O)N[C@H](C(=O)N[C@@H](CCC(=O)O)C(=O)N[C@H](C(=O)NCC(=O)N[C@@H](CO)C(=O)NCC(=O)N[C@@H](CO)C(=O)N1CCC[C@H]1C(N)=O)[C@@H](C)O)[C@@H](C)O)[C@@H](C)O)[C@@H](C)O` [compound 68, [N-terminal(acetyl), des1, 4K(C20 diacid-gGlu), 30S, 31G]mimylin] (Ac-ASK([γGlu-C20 diacid])LSTAALGRLSAELHELATLPRTETGSGSP-NH2) gave an IC50 [1] of 0.05 nM.
With `CC(C)C[C@H](NC(=O)[C@H](C)NC(=O)[C@H](C)NC(=O)[C@@H](NC(=O)[C@H](CO)NC(=O)[C@H](CC(C)C)NC(=O)[C@H](CCC(=O)O)NC(=O)[C@H](CO)NC(=O)[C@H](C)NC(=O)[C@H](CCC(=O)O)NC(=O)CCCCCCCCCCCCCCCCC(=O)O)[C@@H](C)O)C(=O)NCC(=O)N[C@@H](CCCNC(=N)N)C(=O)N[C@@H](CC(C)C)C(=O)N[C@@H](CO)C(=O)N[C@@H](C)C(=O)N[C@@H](CCC(=O)O)C(=O)N[C@@H](CC(C)C)C(=O)N[C@@H](Cc1cnc[nH]1)C(=O)N[C@@H](CCC(=O)O)C(=O)N[C@@H](CC(C)C)C(=O)N[C@@H](C)C(=O)N[C@H](C(=O)N[C@@H](CC(C)C)C(=O)N1CCC[C@H]1C(=O)N[C@@H](CCCNC(=N)N)C(=O)N[C@H](C(=O)N[C@@H](CCC(=O)O)C(=O)N[C@H](C(=O)NCC(=O)N1CCC[C@H]1C(=O)N[C@@H](CCC(=O)O)C(=O)N[C@@H](CO)C(=O)N1CCC[C@H]1C(N)=O)[C@@H](C)O)[C@@H](C)O)[C@@H](C)O` [Ex. #2, [N-terminal(C18 diacid)]mimylin] ({C18 diacid}-EASELSTAALGRLSAELHELATLPRTETGPESP-NH2) the “AUC/D” value ([2]; Co-dosing liraglutide + Ex #2) was 712 kg·h/L, the “Cmax/D” value ([2]; Co-dosing liraglutide + Ex #2) was 6.9 kg/L and the “T½” value ([2]; Co-dosing liraglutide + Ex #2) was 67 h. For the same molecule, the “AUC/D” value [2, 3] was 732 kg·h/L, the “Cmax/D” value [2, 3] was 5.8 kg/L and the “T½” value [2, 3] was 67 h. The “effect on PK profile of the co-formulated peptide” value ([2]; administered as co-formulations to LYD pigs) was “do not affect the PK profile of liraglutide”.
For `CC(C)C[C@H](NC(=O)[C@H](CCC(=O)O)NC(=O)[C@H](C)NC(=O)[C@@H](NC(=O)[C@H](CC(C)C)NC(=O)[C@H](CCCNC(=N)N)NC(=O)CNC(=O)[C@H](CC(C)C)NC(=O)[C@@H](NC(=O)[C@H](C)NC(=O)[C@@H](NC(=O)[C@@H](NC(=O)[C@H](CC(C)C)NC(=O)[C@H](CCC(=O)O)NC(=O)[C@H](CO)NC(=O)[C@H](C)NC(=O)CC[C@H](NC(=O)CCCCCCCCCCCCCCCCC(=O)O)C(=O)O)[C@@H](C)O)[C@@H](C)O)C(C)C)[C@@H](C)O)C(=O)N[C@@H](Cc1c[nH]cn1)C(=O)N[C@@H](CCC(=O)O)C(=O)N[C@@H](CC(C)C)C(=O)N[C@@H](CCC(=O)O)C(=O)N[C@H](C(=O)N[C@@H](CC(C)C)C(=O)N1CCC[C@H]1C(=O)N[C@@H](CCCNC(=N)N)C(=O)N[C@H](C(=O)N[C@@H](CCC(=O)O)C(=O)N[C@H](C(=O)NCC(=O)N[C@H](C(=O)NCC(=O)N[C@H](C(=O)N1CCC[C@H]1C(N)=O)[C@@H](C)O)[C@@H](C)O)[C@@H](C)O)[C@@H](C)O)[C@@H](C)O` [compound 105, [N-terminal(C18 diacid-gGlu), des1, 6T, 9V, 14T, 21E, 30T, 31G, 32T]mimylin] ({C18 diacid-γGlu}-ASELTTAVLGRLTAELHELETLPRTETGTGTP-NH2), the IC50 [1] was 0.309 nM.
